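Briefly, cells in 96-well plates were exposed to five compound concentrations for 48 h, and endpoints were estimated by linear interpolation. At the GI50, growth is halved.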 Activity calls are given as the source filed them. Rule as the data show it: active = GI50 up to about 1.1 µM and inactive = higher.
Assays:
Assay in all cases: DTP human tumour cell line panel, 48 h
[1] = test system: NCI-H226
[2] = test system: OVCAR-8
[3] = test system: DU-145
[4] = test system: CCRF-CEM
[5] = test system: UACC-62
[6] = test system: SR
[7] = test system: SF-539
[8] = test system: SK-MEL-2
[9] = test system: SNB-19
[10] = test system: NCI-H522
[11] = test system: MDA-N
[12] = test system: NCI-H460
[13] = test system: A498
[14] = test system: RXF 393
[15] = test system: HOP-92
[16] = test system: MOLT-4
[17] = test system: SNB-75
[18] = test system: UO-31
[19] = test system: OVCAR-5
[20] = test system: PC-3
[21] = test system: MDA-MB-435
[22] = test system: T47D
[23] = test system: NCI-H23
[24] = test system: HCC 2998
[25] = test system: OVCAR-4
[26] = test system: SF-268
[27] = test system: A549
[28] = test system: SF-295
[29] = test system: SK-OV-3
[30] = test system: OVCAR-3
[31] = test system: Malme-3M
[32] = test system: TK-10
[33] = test system: HCT-116
[34] = test system: K562
[35] = test system: ACHN
[36] = test system: 786-0
[37] = test system: SK-MEL-28
[38] = test system: LOX IMVI
[39] = test system: NCI/ADR-RES
[40] = test system: HOP-62
[41] = test system: HT-29
[42] = test system: HL-60
[43] = test system: COLO 205
[44] = test system: KM12
[45] = test system: M14
[46] = test system: SN12C
[47] = test system: IGROV-1
[48] = test system: U-251
[49] = test system: HCT-15
[50] = test system: UACC-257
[51] = test system: SK-MEL-5
[52] = test system: MDA-MB-231
[53] = test system: MCF7
[54] = test system: RPMI-8226
[55] = test system: SW-620
[56] = test system: CAKI-1
[57] = test system: EKVX
[58] = test system: Hs-578T

Compound: CC(=O)c1c(-c2ccc(Cl)cc2)c(C#N)c(=S)n(C2OC(CO)C(O)C(O)C2O)c1C (stereo not drawn)
- GI50 [1]: 58.3 µM (inactive)
- GI50 [2]: > 100 µM (inactive)
- GI50 [3]: > 100 µM (inactive)
- GI50 [4]: 25.9 µM (inactive)
- GI50 [5]: 22.3 µM (inactive)
- GI50 [6]: 30.3 µM (inactive)
- GI50 [7]: 46.7 µM (inactive)
- GI50 [8]: 28.2 µM (inactive)
- GI50 [9]: 31 µM (inactive)
- GI50 [10]: 32.3 µM (inactive)
- GI50 [11]: 30.8 µM (inactive)
- GI50 [12]: 37 µM (inactive)
- GI50 [13]: 50.7 µM (inactive)
- GI50 [14]: 98.2 µM (inactive)
- GI50 [15]: 13.1 µM (inactive)
- GI50 [16]: 21.6 µM (inactive)
- GI50 [17]: > 100 µM (inactive)
- GI50 [18]: 1.44 µM (inactive)
- GI50 [19]: > 100 µM (inactive)
- GI50 [20]: 31.5 µM (inactive)
- GI50 [21]: 37.8 µM (inactive)
- GI50 [22]: 49.3 µM (inactive)
- GI50 [23]: 45.4 µM (inactive)
- GI50 [24]: > 100 µM (inactive)
- GI50 [25]: 38.5 µM (inactive)
- GI50 [26]: 53.3 µM (inactive)
- GI50 [27]: 71 µM (inactive)
- GI50 [28]: 54.6 µM (inactive)
- GI50 [29]: 82.8 µM (inactive)
- GI50 [30]: 30.8 µM (inactive)
- GI50 [31]: 67 µM (inactive)
- GI50 [32]: 70.6 µM (inactive)
- GI50 [33]: 47 µM (inactive)
- GI50 [34]: 32.4 µM (inactive)
- GI50 [35]: 42.3 µM (inactive)
- GI50 [36]: 63.2 µM (inactive)
- GI50 [37]: 34.1 µM (inactive)
- GI50 [38]: 30.1 µM (inactive)
- GI50 [39]: > 100 µM (inactive)
- GI50 [40]: 65 µM (inactive)
- GI50 [41]: 30.1 µM (inactive)
- GI50 [42]: 26.9 µM (inactive)
- GI50 [43]: 32.5 µM (inactive)
- GI50 [44]: 40.4 µM (inactive)
- GI50 [45]: 57.7 µM (inactive)
- GI50 [46]: 52.6 µM (inactive)
- GI50 [47]: 35.6 µM (inactive)
- GI50 [48]: 36.8 µM (inactive)
- GI50 [49]: 82 µM
- GI50 [50]: 82.4 µM (inactive)
- GI50 [51]: 37.2 µM (inactive)
- GI50 [52]: 37 µM (inactive)

Compound: O=C(Nc1cccc(C(F)(F)F)c1)c1cc(Br)cc(Br)c1O [FLUOROSALAN]
- GI50 [1]: 3.51 µM (inactive)
- GI50 [2]: 3.09 µM (inactive)
- GI50 [3]: 2.9 µM (inactive)
- GI50 [4]: 3.22 µM (inactive)
- GI50 [53]: 2.89 µM (inactive)
- GI50 [5]: 3.56 µM (inactive)
- GI50 [6]: > 10 µM (inactive)
- GI50 [7]: 3.55 µM (inactive)
- GI50 [8]: 2.32 µM (inactive)
- GI50 [9]: 2.77 µM (inactive)
- GI50 [10]: 3 µM (inactive)
- GI50 [11]: 3.69 µM (inactive)
- GI50 [12]: 3.02 µM (inactive)
- GI50 [54]: 2.08 µM (inactive)
- GI50 [14]: 2.71 µM (inactive)
- GI50 [15]: 2.27 µM (inactive)
- GI50 [16]: 3.15 µM (inactive)
- GI50 [17]: 3.35 µM (inactive)
- GI50 [18]: 2.35 µM (inactive)
- GI50 [19]: 4.76 µM (inactive)
- GI50 [20]: 2.32 µM (inactive)
- GI50 [21]: 3.2 µM (inactive)
- GI50 [55]: 3.9 µM (inactive)
- GI50 [22]: 3.24 µM (inactive)
- GI50 [23]: 2.22 µM (inactive)
- GI50 [24]: 3.03 µM (inactive)
- GI50 [25]: 3.68 µM (inactive)
- GI50 [26]: 4.25 µM (inactive)
- GI50 [27]: 2.83 µM (inactive)
- GI50 [28]: 2.62 µM (inactive)
- GI50 [29]: 2.81 µM (inactive)
- GI50 [30]: 2.24 µM (inactive)
- GI50 [32]: 2.96 µM (inactive)
- GI50 [56]: 2.3 µM (inactive)
- GI50 [33]: 2.32 µM (inactive)
- GI50 [34]: 2.08 µM (inactive)
- GI50 [35]: 3.06 µM (inactive)
- GI50 [36]: 3.63 µM (inactive)
- GI50 [37]: 3.38 µM (inactive)
- GI50 [38]: 2.06 µM (inactive)
- GI50 [39]: 2.36 µM (inactive)
- GI50 [40]: 5.22 µM (inactive)
- GI50 [41]: 3.91 µM (inactive)
- GI50 [42]: 2.34 µM (inactive)
- GI50 [57]: 2.19 µM (inactive)
- GI50 [43]: 3.18 µM (inactive)
- GI50 [44]: 3.28 µM (inactive)
- GI50 [45]: 4.94 µM (inactive)
- GI50 [46]: 3.59 µM (inactive)
- GI50 [58]: 3.4 µM (inactive)
- GI50 [47]: 4.28 µM (inactive)
- GI50 [48]: 3.79 µM (inactive)
- GI50 [49]: 4.5 µM
- GI50 [50]: 2.52 µM (inactive)
- GI50 [51]: 1.65 µM (inactive)
- GI50 [52]: 4.34 µM (inactive)

Source: ChEMBL document CHEMBL1201862, “PubChem BioAssay data set” (2004)
